Results from PubChem BioAssay AID328 (DTP/NCI, 2004).
Values joined by “and” are separate entries in the source; they are usually repeats but may differ in a detail not shown here. Equal values may be shown once. Toxic doses and inconclusive results are not listed. How the source made its calls: active means survival T/C of 150% or more; inactive means T/C below 125% in these data.

Tested on: BDF1 mice, P388 leukemia ip, median survival T/C
Test: NCI In Vivo Anticancer Drug Screen. Data for tumor model P388 Leukemia (intraperitoneal) in B6D2F1 (BDF1) mice
Conditions: endpoint: median survival time, higher = longer survival
Summary of the method: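 Vehicle-dosed animals serve as the reference; survival of compound-dosed, tumour-implanted mice is divided by it.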

[1] = dose: 100.0 mg/kg/injection, schedule: Q01DX009 (ip), vehicle: saline
[2] = dose: 100.0 mg/kg/injection, schedule: Q04DX003 (ip), vehicle: saline
[3] = dose: 200.0 mg/kg/injection, schedule: Q01DX009 (ip), vehicle: saline
[4] = dose: 200.0 mg/kg/injection, schedule: Q04DX003 (ip), vehicle: saline
[5] = dose: 400.0 mg/kg/injection, schedule: Q04DX003 (ip), vehicle: saline
[6] = dose: 12.5 mg/kg/injection, schedule: Q04DX003 (ip), vehicle: water
[7] = dose: 25.0 mg/kg/injection, schedule: Q04DX003 (ip), vehicle: water
[8] = dose: 50.0 mg/kg/injection, schedule: Q04DX003 (ip), vehicle: water
[9] = dose: 100.0 mg/kg/injection, schedule: Q04DX003 (ip), vehicle: water
[10] = dose: 200.0 mg/kg/injection, schedule: Q04DX003 (ip), vehicle: water
[11] = dose: 100.0 mg/kg/injection, schedule: Q04DX003 (ip), vehicle: saline with Tween-80
[12] = dose: 12.5 mg/kg/injection, schedule: Q04DX003 (ip), vehicle: saline with Tween-80
[13] = dose: 25.0 mg/kg/injection, schedule: Q04DX003 (ip), vehicle: saline with Tween-80
[14] = dose: 50.0 mg/kg/injection, schedule: Q04DX003 (ip), vehicle: saline with Tween-80
[15] = dose: 6.25 mg/kg/injection, schedule: Q01DX009 (ip), vehicle: Klucel (hydroxypropylcellulose) (HPC)
[16] = dose: 25.0 mg/kg/injection, schedule: Q04DX003 (ip), vehicle: saline
[17] = dose: 12.5 mg/kg/injection, schedule: Q01DX009 (ip), vehicle: saline with Tween-80
[18] = dose: 25.0 mg/kg/injection, schedule: Q01DX009 (ip), vehicle: saline with Tween-80
[19] = dose: 50.0 mg/kg/injection, schedule: Q01DX009 (ip), vehicle: saline with Tween-80
[20] = dose: 6.25 mg/kg/injection, schedule: Q04DX003 (ip), vehicle: saline with Tween-80
[21] = dose: 50.0 mg/kg/injection, schedule: Q01DX009 (ip), vehicle: saline
[22] = dose: 50.0 mg/kg/injection, schedule: Q04DX003 (ip), vehicle: saline
[23] = dose: 50.0 mg/kg/injection, schedule: Q01DX009 (ip), vehicle: water
[24] = dose: 100.0 mg/kg/injection, schedule: Q01DX009 (ip), vehicle: water
[25] = dose: 200.0 mg/kg/injection, schedule: Q01DX009 (ip), vehicle: water
[26] = dose: 400.0 mg/kg/injection, schedule: Q04DX003 (ip), vehicle: water

Measured: T/C

O=C(CN1CCOCC1)N1CCOCC1
inactive: [1] 90 % of control | [2] 100 % of control | [3] 100 % of control | [4] 95 % of control | dose: 400.0 mg/kg/injection, schedule: Q01DX009 (ip), vehicle: saline 100 % of control | [5] 104 % of control

COc1cccc(C(O)c2ccncc2C)c1OC (centres undefined)
inactive: [6] 103 % of control | [7] 97 % of control | [8] 102 % of control | [9] 112 % of control | [10] 97 % of control

Cc1ccc(C)c(-n2nnc3ccccc3c2=O)c1
inactive: dose: 100.0 mg/kg/injection, schedule: Q01DX009 (ip), vehicle: saline with Tween-80 100 % of control | [11] 100 % of control | dose: 200.0 mg/kg/injection, schedule: Q01DX009 (ip), vehicle: saline with Tween-80 86 % of control | dose: 200.0 mg/kg/injection, schedule: Q04DX003 (ip), vehicle: saline with Tween-80 90 % of control | dose: 400.0 mg/kg/injection, schedule: Q01DX009 (ip), vehicle: saline with Tween-80 100 % of control | dose: 400.0 mg/kg/injection, schedule: Q04DX003 (ip), vehicle: saline with Tween-80 100 % of control

COc1cc(Br)c(/C=C/[N+](=O)[O-])cc1OC
inactive: [12] 105 % of control | [13] 105 % of control and 107 % of control | [14] 113 % of control | [11] 123 % of control

COCn1cnc2c(F)ncnc21
inactive: [15] 86 % of control | dose: 6.25 mg/kg/injection, schedule: Q04DX003 (ip), vehicle: saline 95 % of control | dose: 12.5 mg/kg/injection, schedule: Q01DX009 (ip), vehicle: Klucel (hydroxypropylcellulose) (HPC) 90 % of control | dose: 12.5 mg/kg/injection, schedule: Q04DX003 (ip), vehicle: saline 109 % of control | dose: 25.0 mg/kg/injection, schedule: Q01DX009 (ip), vehicle: Klucel (hydroxypropylcellulose) (HPC) 86 % of control | [16] 100 % of control

COc1ccc(NC(=S)N(CCC#N)C2CCCCC2)cc1
inactive: dose: 6.25 mg/kg/injection, schedule: Q01DX009 (ip), vehicle: saline with Tween-80 86 % of control | [17] 100 % of control | [18] 104 % of control | [19] 95 % of control

O=C(c1ccccc1)C(O)(CC(c1ccccc1)[P+](c1ccccc1)(c1ccccc1)c1ccccc1)c1ccccc1 (centres undefined)
inactive: dose: 0.87 mg/kg/injection, schedule: Q01DX009 (ip), vehicle: saline 108 % of control | dose: 3.12 mg/kg/injection, schedule: Q01DX009 (ip), vehicle: Klucel (hydroxypropylcellulose) (HPC) 122 % of control | dose: 3.5 mg/kg/injection, schedule: Q01DX009 (ip), vehicle: saline 120 % of control | [15] 113 % of control | [20] 109 % of control | dose: 12.5 mg/kg/injection, schedule: Q04DX003 (ip), vehicle: Klucel (hydroxypropylcellulose) (HPC) 104 % of control | [12] 118 % of control

CC(C)NCC(O)COc1ccc2ncsc2c1 (centres undefined)
inactive: [21] 108 % of control | [1] 110 % of control | [3] 91 % of control

Nc1nc2ccccc2nc1N
inactive: dose: 25.0 mg/kg/injection, schedule: Q01DX009 (ip), vehicle: saline 100 % of control | [16] 100 % of control | [21] 100 % of control | [22] 95 % of control | [1] 90 % of control | [2] 91 % of control

CC(C)CC(CC(C)C)NCC(C)OC(=O)c1ccc([N+](=O)[O-])cc1 (centres undefined)
inactive: [23] 106 % of control | [8] 100 % of control | [24] 92 % of control | [9] 103 % of control | [25] 103 % of control | [10] 94 % of control | [26] 88 % of control

CC(C(=O)O)S(=O)(=O)c1ccccc1 (centres undefined)
inactive: dose: 100.0 mg/kg/injection, schedule: Q04DX002 (ip), vehicle: saline with Tween-80 93 % of control | dose: 200.0 mg/kg/injection, schedule: Q04DX002 (ip), vehicle: saline with Tween-80 102 % of control

CCN(CC)CCCC(C)NS(=O)(=O)c1cccc2c(N(C)C)cccc12 (centres undefined)
inactive: dose: 6.25 mg/kg/injection, schedule: Q04DX003 (ip), vehicle: water 97 % of control | [6] 108 % of control | [7] 118 % of control | [8] 118 % of control | [9] 115 % of control

C[n+]1ccc(Nc2ccc(NC(=O)c3ccc(Nc4cc[n+](C)c5ccc([N+](=O)[O-])cc45)cc3[N+](=O)[O-])cc2)cc1
inactive: [16] 105 % of control and 116 % of control
active: [4] 158 % of control and 203 % of control

COc1cccc2c(=O)cc(C)[nH]c12
inactive: dose: 25.0 mg/kg/injection, schedule: Q01DX009 (ip), vehicle: water 107 % of control | [23] 92 % of control | [8] 103 % of control | [24] 101 % of control | [9] 97 % of control | [25] 91 % of control | [10] 106 % of control | dose: 400.0 mg/kg/injection, schedule: Q01DX009 (ip), vehicle: water 90 % of control | [26] 98 % of control

COc1ccc(NC(=O)c2ccccc2Cl)cc1
inactive: dose: 100.0 mg/kg/injection, schedule: Q01DX009 (ip), vehicle: Klucel (hydroxypropylcellulose) (HPC) 100 % of control | dose: 100.0 mg/kg/injection, schedule: Q04DX003 (ip), vehicle: Klucel (hydroxypropylcellulose) (HPC) 104 % of control | dose: 200.0 mg/kg/injection, schedule: Q01DX009 (ip), vehicle: Klucel (hydroxypropylcellulose) (HPC) 95 % of control | dose: 200.0 mg/kg/injection, schedule: Q04DX003 (ip), vehicle: Klucel (hydroxypropylcellulose) (HPC) 91 % of control | dose: 400.0 mg/kg/injection, schedule: Q01DX009 (ip), vehicle: Klucel (hydroxypropylcellulose) (HPC) 104 % of control | dose: 400.0 mg/kg/injection, schedule: Q04DX003 (ip), vehicle: Klucel (hydroxypropylcellulose) (HPC) 112 % of control

O=C(Nc1cc(Cl)ccc1Cl)O/N=C/c1ccncc1
inactive: [17] 106 % of control | [18] 90 % of control | [19] 96 % of control

C=CCN1C(=O)CNC1=O
inactive: [21] 93 % of control | [1] 100 % of control | [3] 101 % of control

CCN(CC)CCN1C(=O)c2cccc3cccc(c23)C1=O
inactive: [21] 105 % of control | dose: 66.0 mg/kg/injection, schedule: Q01DX009 (ip), vehicle: saline 109 % of control | [2] 110 % of control | [4] 95 % of control
active: dose: 150.0 mg/kg/injection, schedule: Q01DX009 (ip), vehicle: saline 172 % of control and 181 % of control

CCN(CC)CCNc1ccc([N+](=O)[O-])c2sc3ccccc3c(=O)c12
inactive: dose: 100.0 mg/kg/injection, schedule: Q01DX009 (ip), vehicle: saline sonified 95 % of control
active: dose: 50.0 mg/kg/injection, schedule: Q01DX009 (ip), vehicle: saline sonified 177 % of control

CCCCC(I)C(C)(C)[n+]1ccccc1 (centres undefined)
inactive: dose: 3.12 mg/kg/injection, schedule: Q04DX003 (ip), vehicle: saline with Tween-80 100 % of control | [20] 95 % of control | [17] 100 % of control | [12] 87 % of control | [18] 113 % of control | [13] 103 % of control | [14] 96 % of control

CC(=O)N1C(=O)NC(=O)C1(CSCc1ccccc1)CSCc1ccccc1
inactive: [16] 98 % of control | [22] 98 % of control | [2] 116 % of control | [4] 107 % of control | [5] 99 % of control

CCCCCCCCCCCC(c1ccccc1)[N+](C)(C)C (centres undefined)
inactive: dose: 1.0 mg/kg/injection, schedule: Q01DX010 (ip), vehicle: saline 100 % of control | dose: 2.0 mg/kg/injection, schedule: Q01DX010 (ip), vehicle: saline 104 % of control | dose: 4.0 mg/kg/injection, schedule: Q01DX010 (ip), vehicle: saline 116 % of control | dose: 4.0 mg/kg/injection, schedule: Q04DX003 (ip), vehicle: saline 113 % of control | dose: 8.0 mg/kg/injection, schedule: Q04DX003 (ip), vehicle: saline 118 % of control | dose: 16.0 mg/kg/injection, schedule: Q04DX003 (ip), vehicle: saline 100 % of control
